Results published in patent publication US20080234262A1 (Wyeth, priority 2007, published 2008).

How the values were obtained:
breast line MDA468 = test: In vitro cell culture growth assay (MTS), MDA468; assay type: cell-based, human; settings: Homo sapiens, 72 h, MDA468 cells, three days after drug treatment
In short: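 Three-day drug treatment starting 1 day post-plating; viable cells quantified via MTS metabolism (A490); effect normalised to in-plate vehicle controls as % growth.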

PI3K = PI3K (Homo sapiens, UniProt P42336); test: Fluorescence polarization assay for PI3K; assay type: biochemical; settings: PI3Kα; read-out: PI3Kα IC50;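 note: PI3K kinase reaction on PIP2 with ATP, 30-60 min, product sensed by GST-GRP with red probe in fluorescence polarization (mP), controls without enzyme and at zero time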
prostate line LNCap = test: In vitro cell culture growth assay (MTS), LNCap; assay type: cell-based, human; settings: Homo sapiens, LNCaP, 72 h, LNCap cells, three days after drug treatment;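 note: viable cell density read by absorbance at 490 nm, growth expressed as percent of vehicle-treated cells on the same plate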

PI3K, sequence (P42336 whole entry): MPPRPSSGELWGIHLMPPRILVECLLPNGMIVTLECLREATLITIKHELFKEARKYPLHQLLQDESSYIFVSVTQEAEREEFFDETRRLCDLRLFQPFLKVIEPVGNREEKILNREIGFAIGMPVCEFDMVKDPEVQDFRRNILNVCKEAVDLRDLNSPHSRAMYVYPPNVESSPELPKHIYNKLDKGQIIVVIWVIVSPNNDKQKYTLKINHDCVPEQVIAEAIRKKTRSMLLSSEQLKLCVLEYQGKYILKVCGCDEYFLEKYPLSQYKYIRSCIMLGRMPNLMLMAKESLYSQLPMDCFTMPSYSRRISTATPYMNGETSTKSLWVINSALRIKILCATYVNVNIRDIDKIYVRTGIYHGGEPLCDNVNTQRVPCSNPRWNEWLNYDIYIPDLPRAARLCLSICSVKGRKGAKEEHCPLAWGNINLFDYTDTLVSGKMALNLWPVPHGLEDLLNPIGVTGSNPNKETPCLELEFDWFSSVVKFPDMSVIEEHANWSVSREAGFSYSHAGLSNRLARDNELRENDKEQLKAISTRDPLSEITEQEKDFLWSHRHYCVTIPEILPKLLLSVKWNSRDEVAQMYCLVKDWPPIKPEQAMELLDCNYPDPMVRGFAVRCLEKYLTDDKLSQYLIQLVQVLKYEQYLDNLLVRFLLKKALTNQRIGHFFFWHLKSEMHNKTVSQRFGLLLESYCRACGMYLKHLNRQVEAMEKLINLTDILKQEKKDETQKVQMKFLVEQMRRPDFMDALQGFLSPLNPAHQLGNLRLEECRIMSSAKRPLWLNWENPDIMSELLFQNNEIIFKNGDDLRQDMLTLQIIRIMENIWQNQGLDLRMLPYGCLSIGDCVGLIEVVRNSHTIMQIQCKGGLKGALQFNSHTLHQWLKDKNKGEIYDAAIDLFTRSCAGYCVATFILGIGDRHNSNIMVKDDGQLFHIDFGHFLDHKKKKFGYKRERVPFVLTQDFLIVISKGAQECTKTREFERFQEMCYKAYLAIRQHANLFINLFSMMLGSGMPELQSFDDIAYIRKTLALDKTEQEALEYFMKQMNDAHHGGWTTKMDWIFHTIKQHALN
PI3K, sequence (P27986 whole entry partner): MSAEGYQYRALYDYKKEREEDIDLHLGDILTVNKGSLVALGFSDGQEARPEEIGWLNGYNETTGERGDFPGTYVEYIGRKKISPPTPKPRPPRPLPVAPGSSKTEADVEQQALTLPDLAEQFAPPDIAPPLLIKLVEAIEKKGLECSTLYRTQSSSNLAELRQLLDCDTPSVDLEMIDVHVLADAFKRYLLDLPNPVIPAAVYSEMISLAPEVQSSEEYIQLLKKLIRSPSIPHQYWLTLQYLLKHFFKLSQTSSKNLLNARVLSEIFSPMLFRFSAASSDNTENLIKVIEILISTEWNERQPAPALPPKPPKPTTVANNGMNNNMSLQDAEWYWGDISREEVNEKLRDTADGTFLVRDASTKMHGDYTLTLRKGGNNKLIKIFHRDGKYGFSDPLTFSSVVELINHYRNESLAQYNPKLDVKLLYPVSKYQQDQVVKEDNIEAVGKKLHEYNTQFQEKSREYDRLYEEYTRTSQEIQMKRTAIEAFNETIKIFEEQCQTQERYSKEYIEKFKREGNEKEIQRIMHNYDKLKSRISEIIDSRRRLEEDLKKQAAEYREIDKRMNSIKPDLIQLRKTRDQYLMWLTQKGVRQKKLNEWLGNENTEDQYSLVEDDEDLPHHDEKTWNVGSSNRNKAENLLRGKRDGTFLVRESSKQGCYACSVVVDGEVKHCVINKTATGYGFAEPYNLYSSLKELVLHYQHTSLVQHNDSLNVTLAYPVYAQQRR

Compound | IC50 (breast line MDA468) [nM] | IC50 (PI3K) [nM] | IC50 (prostate line LNCap) [nM]
CN/C(=N\c1ccc(-c2nc(N3CCOCC3)c3cnn(C4CCN(C(=O)OC(C)C)CC4)c3n2)cc1)SC [Compound 832, isopropyl 4-[6-(4-{[(1E)-(methylamino)(methylthio)methylene]amino}phenyl)-4-morpholin-4-yl-1H-pyrazolo[3,4-d]pyrimidin-1-yl]piperidine-1-carboxylate] | 3700 | 8000 | 2000
CC(C)(C)OC(=O)N1CCC[C@@H](n2ncc3c(N4CCOCC4)nc(-c4ccc(N)cc4)nc32)C1 [Compound 871, tert-butyl (3R)-3-[6-(4-aminophenyl)-4-morpholin-4-yl-1H-pyrazolo[3,4-d]pyrimidin-1-yl]piperidine-1-carboxylate] | 2300 | 4300 | 7500
CNC(=O)Nc1ccc(-c2nc(N3CCOCC3)c3cnn(C4CCN(Cc5ccc(OC)nc5)CC4)c3n2)cc1 [Example 330, 1-[4-(1-{1-[(6-methoxypyridin-3-yl)methyl]piperidin-4-yl}-4-morpholin-4-yl-1H-pyrazolo[3,4-d]pyrimidin-6-yl)phenyl]-3-methylurea] | 700 | 33 | 27
CCOC(=O)N1CCC(n2ncc3c(N4CCOC[C@@H]4C)nc(-c4ccc(NC(=O)Nc5ccc(N6CCOCC6)cc5)cc4)nc32)CC1 [Compound 899, ethyl 4-{4-[(3S)-3-methylmorpholin-4-yl]-6-(4-{[(4-morpholin-4-ylphenyl)carbamoyl]amino}phenyl)-1H-pyrazolo[3,4-d]pyrimidin-1-yl}piperidine-1-carboxylate] | 150 | 30 | 6.8
O=C(NCCc1ccccc1)Nc1ccc(-c2nc(N3CCOCC3)c3cnn(C4CCN(Cc5ccccc5)CC4)c3n2)cc1 [Compound 259, 1-{4-[1-(1-benzylpiperidin-4-yl)-4-morpholin-4-yl-1H-pyrazolo[3,4-d]pyrimidin-6-yl]phenyl}-3-(2-phenylethyl)urea] | 20000 | 2140 | 1000
NC(=O)Nc1ccc(-c2nc(N3CCOCC3)c3cnn(C4CCN(C(=O)c5cccnc5)CC4)c3n2)cc1 [Example 301, 1-(4-{4-morpholin-4-yl-1-[1-(pyridin-3-ylcarbonyl)piperidin-4-yl]-1H-pyrazolo[3,4-d]pyrimidin-6-yl}phenyl)urea] | 1800 | 179 | 3000
COC(=O)N1CCC(n2ncc3c(N4CCOCC4)nc(-c4ccc(NC(=O)Nc5cccnc5)cc4)nc32)CC1 [Compound 737, methyl 4-(4-morpholin-4-yl-6-{4-[(pyridin-3-ylcarbamoyl)amino]phenyl}-1H-pyrazolo[3,4-d]pyrimidin-1-yl)piperidine-1-carboxylate] | < 27 | 34 | < 27
COC(=O)Nc1ccc(-c2nc(N3CCOCC3)c3cnn(C4CCN(C(=O)c5ccccc5Cl)CC4)c3n2)cc1 [Example 444, methyl (4-{1-[1-(2-chlorobenzoyl)piperidin-4-yl]-4-morpholin-4-yl-1H-pyrazolo[3,4-d]pyrimidin-6-yl}phenyl)carbamate] | 800 | 778 | 250
O=C(Nc1ccncc1)Nc1ccc(-c2nc(N3CCOCC3)c3cnn(C4CCN(Cc5cccnc5)CC4)c3n2)cc1F [Compound 599, 1-(2-fluoro-4-{4-morpholin-4-yl-1-[1-(pyridin-3-ylmethyl)piperidin-4-yl]-1H-pyrazolo[3,4-d]pyrimidin-6-yl}phenyl)-3-pyridin-4-ylurea] | 82 | 34 | < 27
O=C(c1ccc(Cl)nc1)N1CCC(n2ncc3c(N4CCOCC4)nc(-c4ccc5[nH]ccc5c4)nc32)CC1 [Example 196, 1-{1-[(6-chloropyridin-3-yl)carbonyl]piperidin-4-yl}-6-(1H-indol-5-yl)-4-morpholin-4-yl-1H-pyrazolo[3,4-d]pyrimidine] | 3000 | 1280 | 750
